In patent publication US20210205292A1, “INHIBITORS OF CREB-CBP INTERACTION FOR TREATMENT OF LEUKEMIA” (The Board of Trustees of the Leland Stanford Junior …, priority 2016, published 2021):
Entries after “also recorded” stand apart in the source; their conditions may differ. Each block holds one molecule with its values, some of them ahead of it.

Assays:
HL-60 cells [1] = assay: HL-60 cell viability, Trypan blue exclusion assay; format: cell-based, human; conditions: 50 nM, 48 hours
From the text: FIG. 11, panels A-D, illustrates ABT-737 Causes Apoptosis in HL-60 Cells; CyTOF Gating Scheme. […] Panel D) CyTOF gating scheme, used to perform analysis specifically on AML cells within AML patient marrow samples.

HL-60 cells [2] = assay: Flow cytometry of apoptosis (c-PARP+, aqua amine+) in HL-60 cells; format: cell-based, human; conditions: 50 to 200 nM, 72 hours
Protocol: AML cell lines were purchased from ATCC and maintained with IMDM (Gibco) supplemented with 10% FBS (Fisher Scientific) and 1% PSG (Gibco). Cells were plated at a density of 2-4×10^5 cells/ml, and treated with various doses of Compound A in 0.1% DMSO or 0.1% DMSO alone. Cell counts and viability were determined using the Vi-CELL XR Cell Viability Analyzer (Beckman Coulter). HL-60 and KG-1 cells overexpressing CREB or CBP were generated using lentiviral gene delivery with subsequent puromycin selection and FACs sorting for GFP. CREB knockdown was achieved by infecting cells with a lentivirus expressing the shRNA sequence 5′-[…]-3′ (SEQ ID NO:). For chemotherapy combination experiments, combination index values were calculated using median effects analysis on Calcusyn software. Human patient bone marrow samples were cultured in DMEM plus 20% FBS and 1×PSG, supplemented with recombinant GM-CSF (20 ng/ml), G-CSF (20 ng/ml), SCF (50 ng/ml), IL-3 (20 ng/ml), and IL-6 (10 ng/ml). Cells were plated at a concentration of 1×10^5 cells/ml in a 12-well plate. Vehicle (0.1% DMSO) or Compound A (2 μM) was added for up to 72 hours. All samples contained >85% AML blasts and were not sorted prior to performing experiments. […] Single cell suspensions of bone marrow culture were subsequently analyzed on a D×P10 flow cytometer (Cytek). […]

HL-60 cells [3] = assay: HL-60 viability, combination of Compound A with kinase inhibitors; format: cell-based, human; conditions: 48 hours
CREB phosphorylation = CREB phosphorylation in HL-60 cells; format: cell-based, human; conditions: HL-60 cells; BI-D1870 5 μM, SB202190 10 μM, U0126 10 μM
From the text: FIG. 12, panels A-D, illustrates the results of CyTOF Phenotyping and Compound A Combination Studies. […] Viability for Compound A treatment alone was 87.4±7.3%, versus 55.3±3.4% and 49.5±2.3% when combined with ERK and RSK inhibitors, respectively (* indicates p<0.05 compared to cells treated with Compound A alone). Panel D) Compound A inhibits CREB phosphorylation in the presence of serum. HL-60 cells were serum-starved then stimulated with serum.
Cells were lysed in RIPA buffer (Sigma), and the protein concentrations were determined by BCA assay (Thermo Scientific Pierce). Lysates were solubilized in 6×SDS PAGE buffer and […] of protein was loaded into 6-15% SDS PAGE gels, pheresed, and then transferred onto […] PVDF membrane (Millipore). Primary antibodies were applied at a dilution of 1:1000. Anti-Bcl-2, -Bax, -Mcl-1, -Bcl-XL, -Cyclin A and -Cyclin D1 antibodies were purchased from Cell Signaling Technologies. Anti-total acetylated histone and -ac-H3K27 were purchased from Santa Cruz Biotechnologies. Anti-actin and -CREB antibodies were purchased from upstate. Secondary antibodies were used at a 1:2500 dilution and purchased from Thermo Scientific/Pierce. WesternBright ECL was used for image acquisition on Image Lab software (Bio-Rad).

Caspase-3 = Caspase-3 protease activity (ApoTarget kit); format: cell-based; conditions: etoposide control
From the text: The ApoTarget Caspase-3 Protease Activity Kit (Invitrogen) was used per manufacturer's instructions.
The balance between pro- and anti-apoptotic protein expression contributes to cell fate decisions. CREB regulates the expression of several anti-apoptotic proteins, including Bcl-2, Bcl-XL and Mcl-1. Bcl-2 expression in particular is known to mediate resistance to chemotherapy and influence clinical outcome in a number of cancer types, including AML. The ability of Compound A to cause apoptosis by disrupting the CREB-driven expression of these anti-apoptotic proteins was examined. In HL-60 cells treated with Compound A, apoptosis is induced in a dose- and time-dependent manner. […] Compound A elicited apoptosis through the intrinsic apoptosis pathway, with activation of Caspase-3 (FIG. 5, panel B) and detectable Caspase-9 cleavage (data not shown). Relative caspase-3 activity at 24 hours: 5.4±0.8 for etoposide, 1±0.78, 0.93±0.71, 1.02±0.67, 2.9±0.58, 5.1±0.63, 4.1±0.71 for 0, 1, 1.5, 2, 2.5 and 3 mM Compound A, respectively. Activity at 72 hours: 1.2±0.05 for etoposide, 1.0±0.02, 1.9±0.03, 3.7±0.04, 4.4±0.05, 2.1±0.03, 1.9±0.02 for 0, 1, 1.5, 2, 2.5 and 3 mM Compound A, respectively. The transcription of Bcl-2 decreased following 72 hours of 2 mM Compound A treatment (FIG. 5, panel C), and this was verified by Western blot analysis (FIG. 5, panel D). […] To confirm whether loss of Bcl-2 function alone is sufficient to induce apoptosis in AML cells, HL-60 cells were treated with the validated Bcl-2 inhibitor ABT-737 (50 to 200 nM). […] Bcl-2 levels are influenced by CREB expression in these AML cell lines (FIG. 11, panel C).

[4] = tested on: CREB-driven promoter (CRE); assay: CREB-driven (CRE) luciferase reporter in KG-1 cells; format: cell-based; conditions: KG-1 cells, 6 hours; 3, 10 and 30 μM
Protocol: (§1) KG-1 cell lines were created to express luciferase in a CREB-dependent or non-CREB-dependent fashion using lentiviral gene delivery. Cells were sorted for mCherry expression by flow cytometry and selected with puromycin. Luciferase activity was measured on a […] using the Promega Luciferase Activity Kit (Promega) per manufacturer's instructions following six hours of treatment with Compound A or 0.1% DMSO. The split Renilla luciferase complementation assay has been described previously (Li BX, and Xiao X. Discovery of a small-molecule inhibitor of the KIX-KID interaction. Chembiochem: a European journal of chemical biology. 2009; 10(17):2721-4). In this assay, the KID and KIX domains were fused to the N- and C-terminal regions of Renilla luciferase, respectively. Once KIX binds phosphorylated KID, the Renilla luciferase regions were brought together, resulting in luciferase activity.
(§2) To test the ability of Compound A to disrupt CREB-CBP binding in cells, a split Renilla luciferase complementation assay was performed. […] This early timepoint was selected to permit accurate reporter gene activity measurement prior to the onset of anticipated global cell dysfunction or death induced by Compound A. Treatment with 3 μM Compound A reduced luciferase activity by 33.2±7.7% at this timepoint. […] Thus, Compound A inhibits CREB function through disruption of CREB:CBP interaction.

KG-1 cells = assay: Viable cell count of engineered KG-1 cell lines (CREB KD, GFP, CREB OE, CBP OE); format: cell-based; conditions: same four KG-1 cell lines, 30 μM
Protocol: AML cell lines were purchased from ATCC and maintained with IMDM (Gibco) supplemented with 10% FBS (Fisher Scientific) and 1% PSG (Gibco). Cells were plated at a density of 2-4×10^5 cells/ml, and treated with various doses of Compound A in 0.1% DMSO or 0.1% DMSO alone. Cell counts and viability were determined using the Vi-CELL XR Cell Viability Analyzer (Beckman Coulter). HL-60 and KG-1 cells overexpressing CREB or CBP were generated using lentiviral gene delivery with subsequent puromycin selection and FACs sorting for GFP. CREB knockdown was achieved by infecting cells with a lentivirus expressing the shRNA sequence 5′-[…]-3′ (SEQ ID NO:). For chemotherapy combination experiments, combination index values were calculated using median effects analysis on Calcusyn software. Human patient bone marrow samples were cultured in DMEM plus 20% FBS and 1×PSG, supplemented with recombinant GM-CSF (20 ng/ml), G-CSF (20 ng/ml), SCF (50 ng/ml), IL-3 (20 ng/ml), and IL-6 (10 ng/ml). Cells were plated at a concentration of 1×10^5 cells/ml in a 12-well plate. Vehicle (0.1% DMSO) or Compound A (2 μM) was added for up to 72 hours. All samples contained >85% AML blasts and were not sorted prior to performing experiments. Immunostaining and flow cytometry analyses were performed according to standard procedures. All antibodies were purchased from BD Biosciences. Single cell suspensions of bone marrow culture were subsequently analyzed on a D×P10 flow cytometer (Cytek). Bone marrow from AML patients were collected through voluntary patient participation at University of California, Los Angeles (Los Angeles, Calif., USA) and Stanford University (Palo Alto, Calif., USA) in compliance with the Institutional Review Board regulations of each institution.
To test the effects of CREB inhibition on AML cells, four AML cell lines were treated with doses of Compound A ranging from 100 pM to 10 μM for 48 hours. […] KG-1 cells were less sensitive to Compound A and expressed lower levels of CREB compared to HL-60 cells (FIG. 2, panel A). CREB was overexpressed to determine whether sensitivity of KG-1 cells to Compound A could be increased. KG-1 cell lines in which CREB or CBP was overexpressed, or CREB was knocked down by shRNA, were generated (FIG. 2C). A KG-1 cell line expressing only GFP was used as a control. These cell lines were treated with a range of Compound A concentrations for 48 hours (FIG. 2D). Experiments were also performed to examine the efficacy of combining Compound A with cytarabine or daunorubicin, standard drugs used in AML therapy.

CMV-driven promoter = assay: CMV-driven luciferase reporter in KG-1 cells; format: cell-based; conditions: 6 hours
Protocol: as §1, §2

[5] = tested on: Jukat (human T lymphocyte cell line for acute T cell leukemia); assay: CellTiter Glo assay in Jukat cells; format: cell-based
Protocol: (§3) The compounds prepared according to the methods described herein and tested for activity in the CellTiter Glo assay in HL60 (Human promyelocytic leukemia cell line), Jukat (human T lymphocyte cell line for acute T cell leukemia) and/or Nalm6 (human ALL cell line) cells.
(§4) Compounds were prepared according to the methods described herein and tested for activity in the CellTiter Glo assay in HL60 (Human promyelocytic leukemia cell line), Jukat (human T lymphocyte cell line for acute Tcell leukemia) and/or Nalm6 (human ALL cell line) cells.

[6] = tested on: Nalm6 (human ALL cell line); assay: CellTiter Glo assay in Nalm6 cells; format: cell-based
Protocol: as §3, §4

[7] = tested on: HL60 (Human promyelocytic leukemia cell line); assay: CellTiter Glo assay in HL60 cells; format: cell-based
Protocol: as §3, §4

Molecule: CN(C)CC[C@H](CSc1ccccc1)Nc1ccc(S(=O)(=O)NC(=O)c2ccc(N3CCN(Cc4ccccc4-c4ccc(Cl)cc4)CC3)cc2)cc1[N+](=O)[O-] [ABT-737, reference compound]
cell viability (HL-60 cells [1]): reduced cell viability
apoptosis (HL-60 cells [2]): Apoptosis was induced

Molecule: CC(C)CCN1c2nc(Nc3cc(F)c(O)c(F)c3)ncc2N(C)C(=O)C1C (centres unmarked) [BI-D1870, reference compound]
effect of combination with Compound A on viability (HL-60 cells [3]): additive effects
compensatory CREB phosphorylation following Compound A treatment (CREB phosphorylation): blocked compensatory CREB phosphorylation

Molecule: COc1cc([C@@H]2c3cc4c(cc3[C@@H](O[C@@H]3O[C@@H]5CO[C@@H](C)O[C@H]5[C@H](O)[C@H]3O)[C@H]3COC(=O)[C@H]23)OCO4)cc(OC)c1O [etoposide, reference compound]
relative caspase-3 activity (Caspase-3; 24 hours): 5.4±0.8
relative caspase-3 activity (Caspase-3; 72 hours): 1.2±0.05

Molecule: N-methyl-(4-chlorophenyl)-3-hydroxy-naphthamide [Analog B, reference compound]
CREB-driven luciferase activity [4]: No statistical difference; also recorded: no significant effect
viability or proliferation rate (KG-1 cells): no reduction in viability or proliferation rate
CMV-driven luciferase expression (CMV-driven promoter): No statistical difference; also recorded: no significant effect

IC50 ([5]; second Table 4): < 1000 nM
IC50 ([7]; HL-60, second Table 4): < 1000 nM
Molecule: O=C(Nc1cc(C(F)(F)F)cc(C(F)(F)F)c1)c1cc(F)ccc1O [Compound 51]
IC50 ([6]; NALM-6, second Table 4): < 1000 nM

IC50 ([5]; second Table 4): 1000 to 10000 nM
IC50 ([7]; HL-60, second Table 4): 1000 to 10000 nM
Molecule: O=C(Nc1cccc(Cl)c1)c1cc(F)ccc1O [Compound 43]
IC50 ([6]; NALM-6, second Table 4): 1000 to 10000 nM

IC50 ([5]; second Table 4): 1000 to 10000 nM
IC50 ([7]; HL-60, second Table 4): < 1000 nM
Molecule: CCOC(=O)c1cccc(NC(=O)c2cc(F)ccc2O)c1 [Compound 58]
IC50 ([6]; NALM-6, second Table 4): 1000 to 10000 nM

IC50 ([5]; Table 5): 100 to 1000 nM
IC50 ([7]; HL-60, Table 5): 1000 to 10000 nM
Molecule: Cc1cc(C(=O)Nc2ccc(C#N)cc2)c(O)c2ncccc12 [Compound 73]
IC50 ([6]; NALM-6, Table 5): 100 to 1000 nM

IC50 ([5]; second Table 4): < 1000 nM
IC50 ([7]; HL-60, second Table 4): < 1000 nM
Molecule: O=C(Nc1ccc(C(F)(F)F)cc1)c1cc(F)ccc1O [Compound 44]
IC50 ([6]; NALM-6, second Table 4): < 1000 nM

IC50 ([5]; Table 5): < 100 nM
IC50 ([7]; HL-60, Table 5): 100 to 1000 nM
Molecule: N#Cc1cc(Cl)ccc1NC(=O)c1ccc2cccnc2c1O [Compound 84]
IC50 ([6]; NALM-6, Table 5): 100 to 1000 nM

Molecule: Oc1ccc(-c2nc(-c3ccncc3)c(-c3ccc(F)cc3)[nH]2)cc1 [SB202190, reference compound]
effect of combination with Compound A on viability (HL-60 cells [3]): additive effects
compensatory CREB phosphorylation following Compound A treatment (CREB phosphorylation): blocked compensatory CREB phosphorylation

IC50 ([5]; Table 5): 100 to 1000 nM
IC50 ([7]; HL-60, Table 5): 100 to 1000 nM
Molecule: O=C(Nc1ccc(Cl)cc1)c1ccc2cccnc2c1O [Compound 67]
IC50 ([6]; NALM-6, Table 5): 100 to 1000 nM

IC50 ([5]; Table 5): 100 to 1000 nM
IC50 ([7]; HL-60, Table 5): 100 to 1000 nM
Molecule: N#Cc1ccc(NC(=O)c2ccc3cccnc3c2O)c(C#N)c1 [Compound 85]
IC50 ([6]; NALM-6, Table 5): 100 to 1000 nM

IC50 ([5]; second Table 4): 1000 to 10000 nM
IC50 ([7]; HL-60, second Table 4): 1000 to 10000 nM
Molecule: CCOC(=O)c1ccc(NC(=O)c2cc(F)ccc2O)cc1 [Compound 57]
IC50 ([6]; NALM-6, second Table 4): 1000 to 10000 nM
